The Km is the concentration of substrate that gives half-maximal velocity. In general, kcat refers to the maximal rate divided by the concentration of active sites.

Residues, ends and D or L forms follow the SMILES beside them.

This note sets out measurements from patent publication US20260327260A1, “PHOSPHONOALANINE OLIGOPEPTIDES AND METHODS OF MAKING AND USE THEREOF” (priority 2023, published 2026).

What all share (type): biochemical, Streptomyces sp. NRRL S-515
One assay deals with PnaD and PnaA. Put plainly: Coupled PnaD-PnaA kinetics: PEP conversion to L-PnAla, coupled to MDH/NADH oxidation. The settings on record: second substrate L-Asp 5 mM. From the text: Apparent steady state parameters were also derived for the conversion of PEP to L-PnAla in reactions with equimolar amounts of PnaD and PnaA (FIG. 20A-FIG. 20B). […] The lower activity in the two-enzyme system is consistent with the slower rate of L-PnAla accumulation observed in the time course experiments (FIG. 16), reflects the unfavourability of PnPy formation [B30], and supports the general hypothesis that PepM activity is the limiting step in Pn biosynthetic pathways.
Kinetic analyses. All reactions (400 μL) were performed in 50 mM HEPES, 150 mM NaCl, pH 7.5, 30° C. using an Agilent Cary 300 spectrophotometer. The instrument was first blanked using the reaction containing the enzymes and the fixed substrate (without NADH). Initial rates were calculated from continual changes in absorbance (340 nm) before and after substrate addition. Data were analyzed using SigmaPlot 15.
Conversion of PEP and L-Asp to L-PnAla and OAA by His6-SUMO-PnaA and His6-PnaD. Each reaction contained 1 μM PnaA, 5 μM PnaD, 5 μM MDH, 200 uM NADH, 2 mM MgCl2, 5 mM L-Asp, and were initiated by the addition of 0.1, 0.2, 0.35, 0.5, 0.65, 0.8, or 1 mM PEP. PnaA was pre-incubated with PLP (1:5) on ice for 10 min prior to use.

The test system of a further assay is PnaB and PnaC. The assay is described as follows: One-pot tripeptide synthesis using PnaB and PnaC. The settings on record: for abundance of PnAla conjugate: role: substrate (dipeptide), with PnAla 1 mM and ATP 5 mM, one-pot with PnaC. From the text:
Having established the diversity of dipeptides produced by PnaC, the reaction specificity of PnaB was probed. PnaC was used to generate substrates for the ligation of PnAla by PnaB. Microscale reactions contained PnaB, PnaC, PnAla, and all pairs of amino acids shown to form dipeptides. LC-HRMS and fragmentation analysis was then used to identify and verify PnAla-containing tripeptides from these 80 reactions (FIG. 4B, Table 4, Table 5). Altogether, the combined enzyme system produced 97 distinct PnAla-tripeptides, 93 of which had not been previously isolated (FIG. 29 & FIG. 30).
Tripeptide synthesis assays using PnaB and PnaC. Reaction mixtures ([…]) contained 10 μM His6-PnaB, 10 μM His6-PnaC, 1 mM L-PnAla, 3 mM L-amino acid A, 3 mM L-amino acid B, and 5 mM ATP in 50 mM Tris-HCl, 100 mM NaCl, 2 mM MgCl2 pH 9. Reactions were incubated at 30° C. for 16 hours, heat inactivated at 65° C. for 10 minutes, and then analyzed by NMR and LC-MS as described above.
(§1) Analysis of PnaC and PnaB substrate specificity reactions. An extracted ion chromatogram (EIC) was obtained for each potential product m z. The shape and retention time of each EIC were used to evaluate the quality and plausibility of true signals, and samples with low-confidence EICs were re-analyzed individually, to address the challenges of ion suppression (FIG. 31A-FIG. 31C) and background noise (FIG. 32A-FIG. 32D).

The test system of another assay is PnaA with PnaD. Put plainly: PnaD-PnaA coupled forward reaction, 31P NMR (PEP to PnAla). On the procedure:
Biochemical assays of His6-SUMO-PnaA with His6-PnaD. Typical reaction mixtures (300 μL) contained 20 μM His6-PnaD, 20 μM His6-SUMO-PnaA, 1.5 mM PEP, 3 mM L-Asp, 100 μM pyridoxal 5′-phosphate (PLP), and 2 mM MgCl2 in 50 mM HEPES, 150 mM NaCl, pH 7.5. Reactions were incubated at 30° C. for 2 hours, heat inactivated at 65° C. for 10 minutes, and then analyzed by ^31P NMR and LC-MS as described above.
Reactions in timecourse experiments ([…]) contained 10 μM His6-PnaD, 10 μM His6-SUMO-PnaA, 1.5 mM PEP, 10 mM L-Asp, 100 μM pyridoxal 5′-phosphate (PLP), and 2 mM MgCl2 in 50 mM HEPES, 150 mM NaCl, pH 7.5. Samples were where heat inactivated 1, 5, 10, 30, 60, 120, and 240 min after initiation and then analyzed by ^31P NMR as described above.
Reactions examining the effect of amino donor concentrations were the same as above, except they contained 1.5, 3, 5, or 10 mM of (L-Asp). Samples were heat inactivated after 120 min and then analyzed by ^31P NMR as described above.

For the next assay, the system named is PnaA. Put plainly: PnaA reverse transamination reaction, 31P NMR/LC-MS (PnAla to PnPy). The settings on record: role: cofactor; additional PLP provided, with PnAla and OAA. As for the experimental part: Biochemical assays of His6-SUMO-PnaA. Typical reaction mixtures (300 μL) contained 20 μM His6-SUMO-PnaA, 1.5 mM L-PnAla, 3 mM oxaloacetate, and 100 μM pyridoxal 5′-phosphate (PLP) in 50 mM HEPES, 150 mM NaCl, pH 7.5. Reactions were incubated at 30° C. for 2 hours, heat inactivated at 65° C. for 10 minutes, and then analyzed by NMR and LC-MS as described above.
Reactions in time course experiments (150 μL) contained 10 μM His6-SUMO-PnaA, 1.5 mM L-PnAla, 10 mM oxaloacetate (OAA), and 100 μM pyridoxal 5′-phosphate (PLP) in 50 mM HEPES, 150 mM NaCl, pH7.5. Samples were where heat inactivated 1, 5, 10, 30, 60, 120, and 240 min after initiation and then analyzed by ^31P NMR as described above.
Reactions examining the effect of keto-acid acceptor concentrations were the same as above, except they contained 1.5, 3, 5, or 10 mM of (OAA). Samples were heat inactivated after 120 min and then analyzed by ^31P NMR as described above.

The test system of the next assay is PnaC. The assay is described as follows: PnaC dipeptide ligation reactions (LC-HRMS). The following applies: for nucleophiles accepted upon activation of the carboxylate: role: substrate (activated carboxylate); for acceptance as carboxylate: role: substrate (carboxylate), 30° C, 16 hours. On the procedure:
(§2) These hypotheses were tested by overproducing and purifying recombinant PnaB and PnaC from E. coli for use in a series of biochemical assays. PnAla, Ala, and ATP were incubated with PnaB or PnaC and the reactions were monitored by ^31P NMR and LC-HRMS. […] To determine if either enzyme could convert Ala-Val into phosphonoalamide A, protein was removed from the PnaC reaction by ultrafiltration and Ala, ATP, and fresh PnaC or PnaB was added to the filtrate. LC-HRMS identified PnAla-Ala-Val as a product following the addition of PnaB, but not PnaC (FIG. 25A-FIG. 25C).
The ATP-Grasp ligases PnaC and PnaB underlie diversification of L-PnAla-containing oligopeptides. To understand the biochemical nature of this potential phosphonopeptide diversity, the substrate specificity of the dipeptide ligase PnaC was first delineated. Microscale biochemical reactions containing purified PnaC were performed with every combination of the 20 canonical amino acids and L-allo-threonine (231 total pairs of substrates). Reactions were analyzed by LC-HRMS to reveal putative dipeptides from 146 out of the 231 combinations. To distinguish residues in reactions containing isomeric pairs (e.g., Ile and Leu, Thr and allo-Thr) new reactions were prepared using ^15N-Ile and 4-^13C-2,3-D2-Thr as substrates. LC-HRMS/MS fragmentation analysis was then performed to verify all products and determine structures.
Biochemical assays of His6-PnaC. Typical reaction mixtures ([…]) contained 10 μM His6-PnaC, […], 3 mM of each L-amino acid, and 5 mM ATP in 50 mM Tris-HCl, 100 mM NaCl, 2 mM MgCl2 pH 9. Reactions were incubated at 30° C. for 16 hours, heat inactivated at 65° C. for 10 minutes, and then analyzed by LC-MS as described above.
as §1

In the next assay the test system is PnaB. Put plainly: PnaB ligation reactions (31P NMR, LC-HRMS). The settings on record: for conversion of dipeptide with PnAla into phosphonoalamide: role: substrate, dipeptide 3 mM, with PnAla 1 mM and ATP 3 mM, pH 9, 30° C. As for the experimental part: as §2
Biochemical assays of His6-PnaB. Typical reaction mixtures ([…]) contained 10 μM His6-PnaB, 3 mM ATP, 1 mM L-PnAla, 3 mM chemically synthesized L-Ala-L-Val, L-Val-L-Val, L-Ala-L-Ile, or L-Thr-L-Val in 50 mM Tris-HCl, 100 mM NaCl, 2 mM MgCl2 pH 9. Reactions were incubated at 30° C. for 2 hours, heat inactivated at 65° C. for 10 minutes, and then analyzed by NMR and LC-MS as described above.

[1] abbreviates: role: substrate (PEP, 0.1-1 mM), MgCl2 2 mM, PnaD and PnaA coupled, pH 7.5, 30° C.

Consider `C=C(OP(=O)(O)O)C(=O)O` [PEP, phosphoenolpyruvate], for which, in the assay with PnaD and PnaA (role: substrate (PEP), compared with PnPy), the “catalytic efficiency lower than that of PnaA directly provided with PnPy (fold)” value is listed as 1,000 fold. In addition, in the assay with PnaD and PnaA (setting [1]), the Km was found to be 547 µM and the kcat is 0.084 s⁻¹. Regarding `C[C@H](N)C(=O)N[C@@H](C)C(=O)O` [Ala-Ala] (H-Ala-Ala-OH), in the assay with PnaB and PnaC, the “abundance of PnAla conjugate” value was “greatest abundance”. For `Cc1ncc(COP(=O)(O)O)c(C=O)c1O` [PLP, pyridoxal 5′-phosphate, reference compound], the “effect of PLP on PnAla formation” value in the assay with PnaA with PnaD (role: cofactor, without addition of PLP) is given as “enzyme activity was observed at significantly reduced amounts”. Moreover, in the assay with PnaA, the “effect of PLP on PnPy formation” value is reported as “significantly greater PnPy was observed when additional PLP was provided”. As for `CC(C)C[C@H](NC(=O)[C@H](C)N)C(=O)O` [Ala-Leu] (H-Ala-Leu-OH), the “abundance of PnAla conjugate” value with PnaB and PnaC is given as “greatest abundance”. Regarding `C[C@@H](O)[C@H](N)C(=O)O` [Thr, Threonine], the “nucleophiles accepted upon activation of the carboxylate” value with PnaC (with ATP) is given as “acceptance of Trp as a nucleophile, but not Thr or Pro”. In the case of `CSCC[C@H](NC(=O)[C@H](C)N)C(=O)O` [Ala-Met] (H-Ala-Met-OH), the “abundance of PnAla conjugate” value with PnaB and PnaC was “greatest abundance”.

Consider `C[C@H](O)[C@H](N)C(=O)O` [allo-Thr, allothreonine], for which, in the assay on PnaC (with ATP), the “nucleophiles accepted upon activation of the carboxylate” value was “both Thr and Pro as nucleophiles, to the exclusion of Trp”. As to `C[C@H](N)C(=O)O` [Ala, Alanine], in the assay with PnaC (role: substrate, with ATP, LC-HRMS ion intensity), the “substrate preference (average ion intensity of dipeptides)” value was “average ion intensity nearly a magnitude larger than any other group”.

In the case of `N[C@@H](CC(=O)O)C(=O)O` [L-Asp, reference compound], the “amino donor dependence of PnAla formation” value in the assay on PnaA with PnaD (role: substrate (amino donor), with PEP, PLP) is reported as “strictly dependent on L-Asp as the amino donor”.

Turning to `N[C@@H](CS)C(=O)O` [cysteine, Cysteine], the acceptance as carboxylate result in the assay with PnaC (with ATP) is “all but arginine and cysteine were accepted as carboxylates”.

With `CSCC[C@H](NC(=O)[C@H](Cc1c[nH]c2ccccc12)NC(=O)[C@@H](N)CP(=O)(O)O)C(=O)O` [PnAla-Trp-Met], in the assay on PnaB and PnaC (role: product, two-enzyme system PnaBC, Met and Trp 3 mM each, ATP 5 mM), the “product of Met + Trp reaction” value was “major species”. Turning to `CC(C)[C@H](NC(=O)[C@H](C)N)C(=O)O` [Ala-Val] (H-Ala-Val-OH), the “abundance of PnAla conjugate” value in the assay on PnaB and PnaC is reported as “greatest abundance”. The “dipeptide product of PnaC reaction (Ala + Val, ATP)” value in the assay with PnaC (role: product, with Ala, Val, ATP) was “product of the PnaC reaction”. As for `N=C(N)NCCC[C@H](N)C(=O)O` [arginine, Arginine], in the assay on PnaC (with ATP), the acceptance as carboxylate entry was “all but arginine and cysteine were accepted as carboxylates”. On to `CSCC[C@H](N)C(=O)N[C@@H](Cc1c[nH]c2ccccc12)C(=O)O` [Met-Trp] (H-Met-Trp-OH), for which the “product of Met + Trp reaction” value in the assay on PnaC (role: product, PnaC-only reaction, Met and Trp, ATP) is “detected as the sole product”. `CC(C)[C@H](NC(=O)[C@@H](N)[C@@H](C)O)C(=O)O` [Thr-Val] (H-Thr-Val-OH): in the assay on PnaB, the “conversion of dipeptide with PnAla into phosphonoalamide” value (“conversion of dipeptide” below) was “respective conversion into phosphonoalamides B, C, and D”. Turning to `CC[C@H](C)[C@H](NC(=O)[C@H](C)N)C(=O)O` [Ala-Ile] (H-Ala-Ile-OH), in the assay with PnaB and PnaC, the “abundance of PnAla conjugate” value was “greatest abundance”. In addition, in the assay with PnaB, the “conversion of dipeptide” value was “respective conversion into phosphonoalamides B, C, and D”. In the case of `Nc1ncnc2c1ncn2[C@@H]1O[C@H](COP(=O)(O)OP(=O)(O)OP(=O)(O)O)[C@@H](O)[C@H]1O` [ATP, reference compound], the ATP requirement result with PnaB (role: cofactor, ATP omitted) was “its omission abolished all activity”; with PnaC (role: cofactor, ATP omitted), “its omission abolished all activity”. Regarding `CC(C)[C@H](N)C(=O)N[C@H](C(=O)O)C(C)C` [Val-Val] (H-Val-Val-OH), the “conversion of dipeptide” value with PnaB was “respective conversion into phosphonoalamides B, C, and D”.
